Measurements: patent US4608365A, “Treatment of neurologic functions” (priority 1984, dated 1986)

What was measured:
patients given TRH = experiment: Amelioration of TRH side-effects by co-medication; set-up: species or system human; conditions: in vivo
Excerpt: In addition, all patients experiencing the various described side-effects considered those side-effects to be minor and desired further TRH treatments.

[1] = tested on: tissue-cultured fetal rat lower motor neurons; experiment: Trophic-like effect on tissue-cultured fetal rat lower motor neurons (cholineactyltransferase); format: cell-based; conditions: chronic
Excerpt: "Transmitter-like," as used herein, includes not only direct excitatory (or facilitatory) and inhibitory actions on the lower motor neurons, but also any action on lower motor neurons or afferents thereto that results indirectly in such an effect. That excitatory TRH action, increasing patients' strength, is either directly excitatory or facilitatory and perhaps analogous to the lower motor neuron facilitation of glutamate excitation noted with TRH micropipetted into spinal cords of normal amphibia (Nicoll, J. Pharmac. Exp. Therap. 1978; 207: 817-24; Phillis et al., Can. J. Physiol. Pharmacol. 1979; 57: 887-99 and rodents, White Abstr. Soc. Neurosci 1983, 9: 714, and in other animal studies. An inhibitory transmitter-like action seems likely to underlie both the rapid-onset autorefractory phenomenon and the possibly related clinical reduction of spasticity, spasms and cramps. A tachyphalaxis or desensitization phenomenon, perhaps similar to the clinical autorefractory state, has been noted in animal lower motor neurons with larger amounts of TRH micropipetted into the spinal cord (Nicoll and Phillis, et al., supra).

In the case of `CN(C)CCOC(c1ccccc1)c1ccccc1.Cn1c(=O)c2[nH]c(Cl)nc2n(C)c1=O` [dimenhydrate], the “effect on nausea side-effect of TRH” value (patients given TRH) is reported as “diminishes the rare, occurring nausea side-effect”.
`CC(N)C(O)c1ccccc1` (stereo not drawn) [phenylpropanolamine] was tested, and the “effect on shivering side-effect of TRH” value (patients given TRH) was “diminish the shivering side-effect”.
With insulin the enhancement of cholineactyltransferase [1] was 10 fold.
